# Patent US20120157548A1, “USE OF CYCLOALIPHATIC DIOLS AS BIOCIDES” (BASF SE, priority 2009, published 2012)
# Assays:
# S. aureus NCIMB 9578 = assay: Biocide test, MIC in tryptone soy broth; type: cell-based; conditions: 30° C., 48 hours; for MIC value, from: lower limit of MIC range; for MIC value, to: upper limit of MIC range
# Description: (§1) For this, in each case a 40 percent strength by weight solution of a diol in propylene glycol was prepared at 60° C.
# (§2) This solution was diluted with a double-strength soy solution (double-strength tryptone soy broth) as nutrient medium in the volume ratio 1:1. Further dilution with soy solution produced solutions with the following concentrations:
# (§3) The following microorganisms were used to test the biocidal effect against various bacteria and fungi:
# (§4) Pure soy solution was used as negative control. The positive control used was a solution of 5 ml of soy solution which has been treated with 0.1 ml of the respective microorganism. The test solutions consisted of 5 ml of the above-described soy solutions of the diols in the particular concentration which have been mixed with 0.1 ml of the respective microorganism.
# (§5) The samples and controls were incubated in the case of the bacteria at 30° C. for 48 hours, and in the case of fungi over 5 days at 25° C.
# (§6) In each case, the MIC (Minimum Inhibitory Concentration) value was determined. This value indicates the minimum concentration above which the growth of the microorganisms was visibly hindered compared to the corresponding sample without addition of the diol.
# (§7) The lower the MIC value, the greater the biocidal effect.
# (§8) For example, this was evident from the occurrence of clouding or visible growth of the microorganism.
# (§9) The MIC value stated is a range between the next higher concentration of a positive test and the same and/or lower concentration of a first negative test.
# E. coli NCIMB 8545 = assay: Biocide test, MIC in tryptone soy broth; type: cell-based; conditions: 30° C., 48 hours; for MIC value, from: lower limit of MIC range; for MIC value, to: upper limit of MIC range
# Description: as §1, §2, §3, §4, §5, §6, §7, §8, §9
# C. albicans NCPF 3179 = assay: Biocide test, MIC in tryptone soy broth; type: cell-based; conditions: 25° C., 5 days; for MIC value, from: lower limit of MIC range; for MIC value, to: upper limit of MIC range
# Description: as §1, §2, §3, §4, §5, §6, §7, §8, §9
# A. niger IMI 149007 = assay: Biocide test, MIC in tryptone soy broth; type: cell-based; conditions: 25° C., 5 days; for MIC value, from: lower limit of MIC range; for MIC value, to: upper limit of MIC range
# Description: as §1, §2, §3, §4, §5, §6, §7, §8, §9
# P. vulgaris NCIMB 4175 = assay: Biocide test, MIC in tryptone soy broth; type: cell-based; conditions: 30° C., 48 hours; for MIC value, from: lower limit of MIC range; for MIC value, to: upper limit of MIC range
# Description: as §1, §2, §3, §4, §5, §6, §7, §8, §9
# [1] = system: P. aeruginosa NCIMB 10421; assay: Biocide test, MIC in tryptone soy broth; type: cell-based; conditions: 30° C., 48 hours; for MIC value, from: lower limit of MIC range; for MIC value, to: upper limit of MIC range
# Description: as §1, §2, §3
# P. aeruginosa NCIMB 10421
# as §4, §5, §6, §7, §8, §9
# microorganisms = conditions: as stated for the comparison substances; cited from earlier work
# [2] = system: series of tested microorganisms; assay: Biocide test, highest measured MIC from the series of tested microorganisms; type: cell-based; conditions: highest measured MIC of the six microorganisms; for Maximum MIC value, from: lower limit of range; for Maximum MIC value, to: upper limit of range
# Description: as §3, §6, §9
# In the last line of each of the tables below, a “maximum” value is listed. This value indicates the highest measured MIC value in each case from the series of tested microorganisms.
Compound,"MIC value, from (S. aureus NCIMB 9578)","MIC value, to (S. aureus NCIMB 9578)","MIC value, from (E. coli NCIMB 8545)","MIC value, to (E. coli NCIMB 8545)","MIC value, from (C. albicans NCPF 3179)","MIC value, to (C. albicans NCPF 3179)","MIC value, from (A. niger IMI 149007)","MIC value, to (A. niger IMI 149007)","MIC value, from (P. vulgaris NCIMB 4175)","MIC value, to (P. vulgaris NCIMB 4175)","MIC value, from [1]","MIC value, to [1]",biocidal effect (microorganisms),"Maximum MIC value, from [2]","Maximum MIC value, to [2]"
"CCCC(O)CO (centres unmarked) [1,2-Pentanediol]",>25 000 ppm of diol,≦50 000 ppm of diol,>25 000 ppm of diol,≦50 000 ppm of diol,>25 000 ppm of diol,≦50 000 ppm of diol,>12 500 ppm of diol,≦25 000 ppm of diol,>25 000 ppm of diol,≦50 000 ppm of diol,>12 500 ppm of diol,≦25 000 ppm of diol,high biocidal effect,>25 000 ppm of diol,≦50 000 ppm of diol
"CC(O)CC(C)O (centres unmarked) [2,4-Pentanediol]",>50 000 ppm of diol,≦100 000 ppm of diol,>50 000 ppm of diol,≦100 000 ppm of diol,>50 000 ppm of diol,≦100 000 ppm of diol,>200 000 ppm of diol,≦400 000 ppm of diol,>50 000 ppm of diol,≦100 000 ppm of diol,>50 000 ppm of diol,≦100 000 ppm of diol,low biocidal effect,>200 000 ppm of diol,≦400 000 ppm of diol
CC(O)CO (centres unmarked) [Propylene Glycol],>200 000 ppm of diol,≦400 000 ppm of diol,>200 000 ppm of diol,≦400 000 ppm of diol,>200 000 ppm of diol,≦400 000 ppm of diol,>200 000 ppm of diol,≦400 000 ppm of diol,>100 000 ppm of diol,≦200 000 ppm of diol,>100 000 ppm of diol,≦200 000 ppm of diol,–,>200 000 ppm of diol,≦400 000 ppm of diol
"Hydroxymethylbicyclo[2.2.1]hept-2-ylmethanol isomers [2,5-2,6-DMNB]",>6 250 ppm of diol,≦12 500 ppm of diol,>6 250 ppm of diol,≦12 500 ppm of diol,>50 000 ppm of diol,≦100 000 ppm of diol,>50 000 ppm of diol,≦100 000 ppm of diol,>6 250 ppm of diol,≦12 500 ppm of diol,>6 250 ppm of diol,≦12 500 ppm of diol,–,>50 000 ppm of diol,≦100 000 ppm of diol
Hydroxymethylbicyclo[2.2.1]hept-2-ylpropan-1-ol isomers [ENB-Diol],>3 125 ppm of diol,≦6 250 ppm of diol,>3 125 ppm of diol,≦6 250 ppm of diol,>12 500 ppm of diol,≦25 000 ppm of diol,>12 500 ppm of diol,≦25 000 ppm of diol,>3 125 ppm of diol,≦6 250 ppm of diol,>50 000 ppm of diol,≦100 000 ppm of diol,–,>50 000 ppm of diol,≦100 000 ppm of diol
Hydroxymethylcyclohexylpropan-1-ol isomers [CHA-diol],>6 250 ppm of diol,≦12 500 ppm of diol,>3 125 ppm of diol,≦6 250 ppm of diol,>6 250 ppm of diol,≦12 500 ppm of diol,>200 000 ppm of diol,≦400 000 ppm of diol,>3 125 ppm of diol,≦6 250 ppm of diol,>50 000 ppm of diol,≦100 000 ppm of diol,–,>200 000 ppm of diol,≦400 000 ppm of diol
